Where a name gives a salt, the structure may show the parent alone. Read-outs that look alike come from different tables or passages of the source.
Tests used:
[1] = system: fibrin-induced microglia activation; assay: Image-based assay of fibrin-induced microglia activation (HTS and dose response); format: cell-based, rat; conditions: for IC50 / inhibition at 10 µM: Rattus norvegicus, Microglia; for inhibition at 10 µM: read-out: Fibrin % inhibition
[2] = system: LPS-induced microglia activation; assay: Image-based assay of LPS-induced microglia activation (HTS and dose response); format: cell-based, rat; conditions: Rattus norvegicus, Microglia; for inhibition at 10 µM: read-out: LPS % inhibition
[3] = system: fibrin- and LPS-induced microglia activation; assay: cells; format: cell-based, rat; conditions: for inhibition at 10 µM: Rattus norvegicus
in vitro [4] = conditions: rat, Cell Toxicity IC50 (uM) [cFib assay]
in vitro [5] = conditions: rat
primary rat microglia [6] = assay: Cell toxicity (dead cells, size <150 μm2) in LPS assay; conditions: for IC50: read-out: Cell Toxicity IC50 (uM) [LPS assay]
primary rat microglia [7] = assay: Cell toxicity (dead cells, size <150 μm2) in coated fibrin (cFib) assay;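 on Fibrin % cell toxicity: share of dead cells sized under 150 µm2 at 10 µM in fibrin-stimulated microglia HTS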
[8] = 48 h, Table 1, dose response 0.001-20 μM, triplicates, primary rat microglia, 48 h, read-out: Fibrin IC50
[9] = dose response, fibrin-induced microglia activation, read-out: Fibrin IC50
[10] = fibrin-induced microglia activation, dose response, read-out: Fibrin IC50 (uM) (Suppl. Table 7)
[11] = primary microglia HTS, fibrin stimulation, increased cell size (>800 μm^2) as marker of activation
[12] = 48 h, Table 1, dose response 0.001-20 μM, triplicates, primary rat microglia, 48 h, read-out: LPS IC50
[13] = 48 h, primary microglia HTS, LPS stimulation, increased cell size (>800 μm^2) as marker of activation
[14] = LPS-induced microglia activation, dose response, read-out: LPS IC50 (uM) (Suppl. Table 7)
[15] = dose response, LPS-induced microglia activation, read-out: LPS IC50
[16] = HTS of 1907 compounds, quadrant by fibrin and LPS inhibition
[17] = Microglia, HTS hit classification, read-out: Hit
[18] = hit classification in microglia HTS, read-out: Cherry-picked Hit (Suppl. Table 7)
[19] = quadrant by fibrin and LPS inhibition in HTS of 1907 compounds
[20] = primary microglia HTS, LPS stimulation, decreased size (<150 μm^2) as marker of toxicity
[21] = primary microglia HTS, fibrin stimulation, decreased size (<150 μm^2) as marker of toxicity
[22] = Table 3, read-out: Fibrin IC50 (uM) (Suppl. Table 7)
[23] = Table 3, read-out: LPS IC50 (uM) (Suppl. Table 7)
[24] = Microglia, Table 3, read-out: Cherry-picked Hit (Suppl. Table 7)

| SMILES | IC50 [1, 8] [µM] | IC50 [1, 9] [µM] | IC50 [1, 10] [µM] | inhibition at 10 µM [1, 11] [%] | IC50 [2, 12] [µM] | inhibition at 10 µM [2, 13] [%] | IC50 [2, 14] [µM] | IC50 [2, 15] [µM] | Quadrant (FIG. 5b) [3, 16] | inhibition at 10 µM [3, 17] [%] | Quadrant (FIG. 5b) ([3]; Table 1, screen at 10 μM) | Quadrant (FIG. 5b) [3, 19] | IC50 (in vitro [4]; cFib assay) [µM] | IC50 (in vitro [5]) [µM] | LPS % cell toxicity (primary rat microglia [6]; [20]) [%] | Fibrin % cell toxicity (primary rat microglia [7]; [21]) [%] | Fibrin Selectivity [1] | Fibrin Selectivity (LOG10) [1] | IC50 [1, 22] [µM] | IC50 [2, 23] [µM] | also measured |
| --- | --- | --- | --- | --- | --- | --- | --- | --- | --- | --- | --- | --- | --- | --- | --- | --- | --- | --- | --- | --- | --- |
| CCC(=O)O[C@]1(C(=O)CCl)[C@@H](C)C[C@H]2[C@@H]3CCC4=CC(=O)C=C[C@]4(C)[C@@]3(F)[C@@H](O)C[C@@]21C [Clobetasol propionate, reference compound] | < 0.001 | < 0.001 | < 0.001 | 108 | < 0.001 | 105 | < 0.001 | < 0.001 | Q2 | > 50 | Q2 | Q2 | > 20 | > 20 | 3 | 3 |  |  |  |  | inhibition at 10 µM ([1]; primary HTS, 10 μM, fibrin-stimulated primary microglia): -22%; inhibition at 10 µM ([2]; primary HTS, 10 μM, LPS-stimulated primary microglia): 30%; inhibition at 10 µM [3, 18]: > 50%; Quadrant (FIG. 5b) ([3]; primary HTS, 10 μM): Q4; LPS % cell toxicity (primary rat microglia [6]; primary HTS, 10 μM, LPS assay, dead cells size <150 μm2): 2%; Fibrin % cell toxicity (primary rat microglia [7]; primary HTS, 10 μM, fibrin assay, dead cells size <150 μm2): 1% |
| CCCCC(=O)O[C@]1(C(=O)CO)CC[C@H]2[C@@H]3CCC4=CC(=O)CC[C@]4(C)[C@H]3[C@@H](O)C[C@@]21C [Hydrocortisone valerate, reference compound] | 0.05 | 0.05 | 0.05 | 95 | 1 | 73 | 1 | 1 | Q2 | > 50 | Q2 | Q2 | > 20 | > 20 | 1 | 1 | 28 | 1.45 | 0.05 | 1 | inhibition at 10 µM [3, 24]: > 50%; Quadrant (FIG. 5b) ([3]; Table 3, screen at 10 μM): Q2; IC50 (in vitro [4]; Table 3): > 20 µM; IC50 (primary rat microglia [6]; LPS assay): > 20 µM |
| CN(C)CCCOc1nn(Cc2ccccc2)c2ccccc12 [Benzydamine hydrochloride, reference compound] | 6 | 6 | 6 | 75 | 3 | 102 | 3 | 3 | Q2 | > 50 | Q2 | Q2 | 20 | 8 | 6 | 1 |  |  |  |  | inhibition at 10 µM [3, 18]: > 50% |
| NS(=O)(=O)c1cc(C2(O)NC(=O)c3ccccc32)ccc1Cl (stereo not shown) [Chlorthalidone, reference compound] | > 20 | > 20 | > 20 | 77 | > 20 | 35 | > 20 | > 20 | Q3 | > 50 | Q3 | Q3 | > 20 | > 20 | 1 | 2 |  |  |  |  | inhibition at 10 µM [3, 18]: > 50% |
| Cc1cccc(C)c1N=C1NCCCS1 [Xylazine hydrochloride, reference compound] | 2 | 2 | 2 | 102 | 8 | 72 | 8 | 8 | Q2 | > 50 | Q2 | Q2 | > 20 | > 20 | 2 | 1 | 5 | 0.72 | 2 | 8 | inhibition at 10 µM [3, 24]: > 50%; Quadrant (FIG. 5b) ([3]; Table 3, screen at 10 μM): Q2; IC50 (in vitro [4]; Table 3): > 20 µM; IC50 (primary rat microglia [6]; LPS assay): > 20 µM |
| CC(C)c1nc(N(C)S(C)(=O)=O)nc(-c2ccc(F)cc2)c1/C=C/[C@@H](O)C[C@@H](O)CC(=O)O [Rosuvastatin, reference compound] | 0.3 | 0.3 | 0.3 | 93 | 3 | 95 | 3 | 3 | Q2 | > 50 | Q2 | Q2 | 20 | > 20 | 4 | 2 | 12 | 1.09 | 0.3 | 3 | inhibition at 10 µM [3, 24]: > 50%; Quadrant (FIG. 5b) ([3]; Table 3, screen at 10 μM): Q2; IC50 (in vitro [4]; Table 3): 20 µM; IC50 (primary rat microglia [6]; LPS assay): > 20 µM |
| NCCc1cc[nH]n1 [Betazole hydrochloride, reference compound] | 12 | 12 | 12 | 59 | > 20 | 38 | > 20 | > 20 | Q3 | > 50 | Q3 | Q3 | > 20 | > 20 | 1 | 1 | 2 | 0.22 | 12 | > 20 | inhibition at 10 µM [3, 24]: > 50%; Quadrant (FIG. 5b) ([3]; Table 3, screen at 10 μM): Q3; IC50 (in vitro [4]; Table 3): > 20 µM; IC50 (primary rat microglia [6]; LPS assay): > 20 µM |
| Cc1cc(NC(=O)C2=C(O)c3ccccc3S(=O)(=O)N2C)no1 [Isoxicam, reference compound] | 7 | 7 | 7 | 67 | > 20 | 30 | > 20 | > 20 | Q3 | > 50 | Q3 | Q3 | > 20 | > 20 | 1 | 1 | 3 | 0.43 | 7 | > 20 | inhibition at 10 µM [3, 24]: > 50%; Quadrant (FIG. 5b) ([3]; Table 3, screen at 10 μM): Q3; IC50 (in vitro [4]; Table 3): > 20 µM; IC50 (primary rat microglia [6]; LPS assay): > 20 µM |
| COc1ccccc1N1CCN(CC(O)COc2cccc3ccccc23)CC1 (stereo not shown) [Naftopidil dihydrochloride, reference compound] | 7 | 7 | 7 | 59 | > 20 | 32 | > 20 | > 20 | Q3 | > 50 | Q3 | Q3 | > 20 | > 20 | 0 | 1 | 3 | 0.45 | 7 | > 20 | inhibition at 10 µM [3, 24]: > 50%; Quadrant (FIG. 5b) ([3]; Table 3, screen at 10 μM): Q3; IC50 (in vitro [4]; Table 3): > 20 µM; IC50 (primary rat microglia [6]; LPS assay): > 20 µM |
| O=C1C=C2C=C[C@@H]3C[C@@]2(O1)[C@H]1CCCCN31 [Securinine, reference compound] | 2 | 2 | 2 | 104 | 6 | 106 | 6 | 6 | Q2 | > 50 | Q2 | Q2 | > 20 | 12 | 1 | 2 | 3 | 0.40 | 2 | 6 | inhibition at 10 µM [3, 24]: > 50%; Quadrant (FIG. 5b) ([3]; Table 3, screen at 10 μM): Q2; IC50 (in vitro [4]; Table 3): > 20 µM |
